Results published in US20210395306A1, “POLYPEPTIDES FOR THE TREATMENT OF STRESS, IMMUNOREACTION AND STROKE SYNDROMES” (Neopep Pharma GmbH & Co. KG, priority 2018, published 2021).

System: Pancreas carcinoma cells
Assay: Cancer cell invasion assay on humanized rats with implanted pancreas carcinoma cells
Assay type: in vivo
Details: pancreas carcinoma implant
Experimental: The cancer cell invasion assay was performed on humanized rats (Eyol, E. et al., Oncology Reports, 28: 2177-2187, 2012). Pancreas carcinoma cells were implanted. The successful implant was observed by luminescent imaging as well as by an increase in CXCR4 expression.
After a successful implant of carcinoma cells, the rats were treated with a peptide according to SEQ ID No. 1. The results after 1 week of therapy (1 w of therapy), after 2 weeks of therapy (2 w of therapy) and 2 weeks after end of therapy are depicted in the below table.

LVRYTQKAPQVS (human) [SEQ ID No. 1]
Tumor growth / remission (10 mg peptide, 1 w of therapy): No tumor growth | Tumor growth / remission (20 mg peptide, 1 w of therapy): No tumor growth | Tumor growth / remission (20 mg peptide, 2 w after end of therapy): Complete | Tumor growth / remission (20 mg peptide, 2 w of therapy): Complete | Tumor growth / remission (70 mg peptide, 1 w of therapy): No tumor growth | Tumor growth / remission (70 mg peptide, 2 w after end of therapy): Complete | Tumor growth / remission (70 mg peptide, 2 w of therapy): Remission
